The values below come from patent publication US7538106B2, “Application of 2-cyano-10- (2-methyl-3- (methylamino)- propyl) phenothiazine or a pharmaceutically acceptable salt as medicament” (Aventis Pharmaceuticals Inc., priority 2003, dated 2009).

One assay concerns the target 5-HT2A (h) (Homo sapiens, UniProt P28223). The experiment in a line: Binding to membrane receptors of central neuromediators of human origin: 5-HT2A. Particulars: 5-HT2A (h) receptor binding.
For another assay, the system named is mice. As to the kind of experiment: Actimetry test (sedative activity, spontaneous motor activity). It is filed as in vivo. Particulars: spontaneous motor activity recorded for 10 minutes. How it is done:
The sedative activity of the product was determined with mice according to an actimetry test. The actimeter is a device composed of 6 transparent cages in which the animals are individually placed. Photoelectric cells make it possible to detect movements in the cages (by cutting the beam). The spontaneous motor activity is recorded for 10 minutes. The results are expressed in the mean form and in the form of percentage of activity with respect to the control batch. The results are expressed in Table 2.

Another assay concerns the target M3 (h) (Homo sapiens, UniProt P20309). As to the kind of experiment: Binding to membrane receptors of central neuromediators of human origin: M3. Particulars: M3 (h) receptor binding. The source says:
(§1) The results of this study of binding to these various membrane receptors of central neuromediators of human origin are presented in Table 1.

The next assay deals with T1, M1 (h) (Homo sapiens, UniProt P11229).
T1 sequence (P11229 1-460): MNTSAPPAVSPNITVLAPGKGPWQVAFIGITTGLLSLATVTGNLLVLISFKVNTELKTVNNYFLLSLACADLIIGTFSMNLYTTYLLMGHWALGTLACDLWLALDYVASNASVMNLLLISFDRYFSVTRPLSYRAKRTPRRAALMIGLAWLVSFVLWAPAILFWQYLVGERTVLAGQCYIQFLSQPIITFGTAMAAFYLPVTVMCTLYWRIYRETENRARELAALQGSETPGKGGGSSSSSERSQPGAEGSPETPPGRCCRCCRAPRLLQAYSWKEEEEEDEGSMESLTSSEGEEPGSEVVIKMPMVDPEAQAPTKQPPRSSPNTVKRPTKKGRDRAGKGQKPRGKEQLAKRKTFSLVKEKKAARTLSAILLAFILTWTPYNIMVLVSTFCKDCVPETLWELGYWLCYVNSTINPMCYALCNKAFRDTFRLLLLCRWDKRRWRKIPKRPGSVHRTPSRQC
The experiment in a line: Binding to membrane receptors of central neuromediators of human origin: M1. Particulars: M1 (h) receptor binding.
Description: as §1

For the next assay, the target named is T2, M2 (h) (Homo sapiens, UniProt P08172).
T2 sequence (P08172 1-466): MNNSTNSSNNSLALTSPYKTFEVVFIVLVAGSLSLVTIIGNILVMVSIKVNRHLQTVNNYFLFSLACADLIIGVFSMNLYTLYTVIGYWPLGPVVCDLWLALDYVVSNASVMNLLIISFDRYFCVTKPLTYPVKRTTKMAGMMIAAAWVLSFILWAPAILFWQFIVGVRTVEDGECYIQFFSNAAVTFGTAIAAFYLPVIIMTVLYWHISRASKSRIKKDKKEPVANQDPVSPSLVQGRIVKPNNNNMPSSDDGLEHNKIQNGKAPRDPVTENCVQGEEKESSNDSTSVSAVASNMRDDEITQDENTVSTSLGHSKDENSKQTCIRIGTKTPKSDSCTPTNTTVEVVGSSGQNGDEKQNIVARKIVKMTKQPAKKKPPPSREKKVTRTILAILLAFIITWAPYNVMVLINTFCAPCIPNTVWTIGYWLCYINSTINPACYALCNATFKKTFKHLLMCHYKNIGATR
The experiment in a line: Binding to membrane receptors of central neuromediators of human origin: M2. The following applies: M2 (h) receptor binding.
Description: as §1

The target of the next assay is H1 (h) (Homo sapiens, UniProt P35367). The experiment in a line: Binding to membrane receptors of central neuromediators of human origin: H1. Particulars: H1 (h) receptor binding.
H1 (h), sequence (P35367 whole entry): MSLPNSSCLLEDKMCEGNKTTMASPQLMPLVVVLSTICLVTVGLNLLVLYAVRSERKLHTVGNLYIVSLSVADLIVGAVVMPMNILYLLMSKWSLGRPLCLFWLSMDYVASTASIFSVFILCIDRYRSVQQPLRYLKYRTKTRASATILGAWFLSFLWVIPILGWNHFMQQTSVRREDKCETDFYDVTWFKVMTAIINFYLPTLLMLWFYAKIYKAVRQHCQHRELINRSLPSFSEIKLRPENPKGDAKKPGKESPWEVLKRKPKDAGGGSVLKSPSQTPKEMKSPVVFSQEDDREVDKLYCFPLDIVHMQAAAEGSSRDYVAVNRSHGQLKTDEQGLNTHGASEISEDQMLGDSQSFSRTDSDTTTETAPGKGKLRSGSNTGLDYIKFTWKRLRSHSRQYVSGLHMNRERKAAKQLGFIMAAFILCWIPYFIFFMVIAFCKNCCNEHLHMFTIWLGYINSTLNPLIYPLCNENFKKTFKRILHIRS
Description: as §1

Another assay addresses D2 (h) (Homo sapiens, UniProt P14416). The experiment in a line: Binding to membrane receptors of central neuromediators of human origin: D2. Particulars: D2 (h) receptor binding.
Description: as §1

The target of the next assay is T3, 5-HT1A (h) (Homo sapiens, UniProt P08908).
T3 sequence (P08908 1-422): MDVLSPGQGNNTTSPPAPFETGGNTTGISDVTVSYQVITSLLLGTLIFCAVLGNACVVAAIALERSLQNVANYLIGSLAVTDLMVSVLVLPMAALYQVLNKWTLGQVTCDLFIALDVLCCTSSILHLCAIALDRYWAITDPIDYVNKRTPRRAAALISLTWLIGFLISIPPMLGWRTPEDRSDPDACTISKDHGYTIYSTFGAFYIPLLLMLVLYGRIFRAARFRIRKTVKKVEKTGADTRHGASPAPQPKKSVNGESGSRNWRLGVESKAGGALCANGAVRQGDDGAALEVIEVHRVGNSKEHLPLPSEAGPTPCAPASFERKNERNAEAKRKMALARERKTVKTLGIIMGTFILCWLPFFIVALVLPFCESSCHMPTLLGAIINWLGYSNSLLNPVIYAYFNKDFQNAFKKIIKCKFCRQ
As to the kind of experiment: Binding to membrane receptors of central neuromediators of human origin: 5-HT1A. Particulars: 5-HT1A (h) receptor binding.
Description: as §1

A further assay has as its target 5-HT2c (h) (Homo sapiens, UniProt P28335). As to the kind of experiment: Binding to membrane receptors of central neuromediators of human origin: 5-HT2c.

pIC50, pKi: −log10 of the molar value.

5-HT2c (h), sequence (P28335 33-458): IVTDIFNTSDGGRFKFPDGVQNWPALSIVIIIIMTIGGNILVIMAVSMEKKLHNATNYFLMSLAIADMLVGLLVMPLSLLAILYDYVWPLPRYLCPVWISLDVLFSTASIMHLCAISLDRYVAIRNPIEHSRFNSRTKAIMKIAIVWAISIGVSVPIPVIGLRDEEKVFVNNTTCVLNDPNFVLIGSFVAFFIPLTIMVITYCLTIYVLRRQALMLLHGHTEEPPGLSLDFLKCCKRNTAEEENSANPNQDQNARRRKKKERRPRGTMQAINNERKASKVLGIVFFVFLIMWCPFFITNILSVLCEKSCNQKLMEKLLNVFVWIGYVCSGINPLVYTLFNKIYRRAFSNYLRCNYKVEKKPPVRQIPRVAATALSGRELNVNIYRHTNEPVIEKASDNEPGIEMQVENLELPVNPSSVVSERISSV
M3 (h), sequence (P20309 whole entry): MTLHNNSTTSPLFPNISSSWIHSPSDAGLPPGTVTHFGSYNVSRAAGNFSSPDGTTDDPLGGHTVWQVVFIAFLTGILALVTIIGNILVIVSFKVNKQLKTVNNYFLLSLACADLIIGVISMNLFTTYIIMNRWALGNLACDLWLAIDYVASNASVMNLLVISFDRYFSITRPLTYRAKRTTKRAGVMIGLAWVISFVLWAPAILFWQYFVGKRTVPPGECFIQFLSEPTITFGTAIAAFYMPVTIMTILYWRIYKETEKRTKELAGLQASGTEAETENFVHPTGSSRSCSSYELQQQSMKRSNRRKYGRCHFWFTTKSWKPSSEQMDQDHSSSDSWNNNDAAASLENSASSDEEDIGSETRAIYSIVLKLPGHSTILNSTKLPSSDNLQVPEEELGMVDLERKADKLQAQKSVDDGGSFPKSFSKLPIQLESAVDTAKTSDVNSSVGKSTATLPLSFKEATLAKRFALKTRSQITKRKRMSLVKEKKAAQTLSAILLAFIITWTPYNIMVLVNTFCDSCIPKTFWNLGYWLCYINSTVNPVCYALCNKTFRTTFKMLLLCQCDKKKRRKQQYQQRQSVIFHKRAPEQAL
D2 (h), sequence (P14416 whole entry): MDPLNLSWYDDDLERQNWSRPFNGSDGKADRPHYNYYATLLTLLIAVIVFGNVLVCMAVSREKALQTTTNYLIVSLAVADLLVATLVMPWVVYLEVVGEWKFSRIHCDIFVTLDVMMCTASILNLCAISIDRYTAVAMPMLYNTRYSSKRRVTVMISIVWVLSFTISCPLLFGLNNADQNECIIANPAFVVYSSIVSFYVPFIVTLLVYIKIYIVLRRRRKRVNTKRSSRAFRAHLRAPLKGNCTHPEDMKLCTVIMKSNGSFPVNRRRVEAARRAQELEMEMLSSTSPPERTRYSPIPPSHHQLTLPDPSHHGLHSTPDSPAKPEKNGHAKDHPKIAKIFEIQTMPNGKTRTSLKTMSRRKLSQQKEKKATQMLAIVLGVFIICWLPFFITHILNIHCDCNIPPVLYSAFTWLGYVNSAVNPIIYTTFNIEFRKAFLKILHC
5-HT2A (h), sequence (P28223 whole entry): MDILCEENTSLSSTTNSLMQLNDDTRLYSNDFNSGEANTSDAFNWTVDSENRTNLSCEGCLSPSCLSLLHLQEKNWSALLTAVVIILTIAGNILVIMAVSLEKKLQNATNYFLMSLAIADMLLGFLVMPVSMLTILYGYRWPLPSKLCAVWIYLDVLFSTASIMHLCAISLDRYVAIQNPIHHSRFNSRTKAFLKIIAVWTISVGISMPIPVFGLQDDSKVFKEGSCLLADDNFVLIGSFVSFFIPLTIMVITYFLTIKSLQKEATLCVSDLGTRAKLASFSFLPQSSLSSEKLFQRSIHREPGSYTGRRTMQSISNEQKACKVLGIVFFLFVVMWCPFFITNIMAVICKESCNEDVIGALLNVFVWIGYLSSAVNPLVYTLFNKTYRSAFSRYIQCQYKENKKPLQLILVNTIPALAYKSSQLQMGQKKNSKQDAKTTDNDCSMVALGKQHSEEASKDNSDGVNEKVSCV

As usually defined, the pIC50 is the IC50 on a negative log10 scale, so that one unit is a factor of ten. Lower therefore signals a large IC50. The pKi is the Ki on a negative log10 scale, so that one unit is a factor of ten. `CNCC(C)CN1c2ccccc2Sc2ccc(C#N)cc21` (stereo not drawn) [2-cyano-10-(2-methyl-3-(methylamino)propyl)phenothiazine]: the pIC50 at 5-HT2A (h) is 8.05; at M3 (h), 5.26; at M1 (h) it was 7.68; on M2 (h), 6.43; at H1 (h), 7.66; at D2 (h), 7.51. The figures for the negative-log IC50 (pIC50) at 5-HT1A (h) and on 5-HT2c (h) (5-HT2c (h) receptor binding) were 6.34 and 7.64, respectively. The negative logarithm of the Ki (pKi) is 8.82 at 5-HT2A (h); 5.41 on M3 (h); 7.77 at M1 (h); 6.60 at M2 (h); 8.03 on H1 (h); 7.92 at D2 (h). Also, the negative-log Ki (pKi) on 5-HT1A (h) was 6.74; on 5-HT2c (h) (5-HT2c (h) receptor binding), 8.07. The “% of activity/control” value worked out at 61% in the assay with mice (dose 0.75 mg/kg), 63% in the assay with mice (dose 1 mg/kg), 26% with mice (dose 2 mg/kg) and 9% in the assay on mice (dose 4 mg/kg). In addition, the “affinity for 5-HT2c receptors” value on 5-HT2c (h) (in words) is “high affinity”.
